Experimental data taken from patent US20240025849A1 (MAX DELBRÜCK-CENTRUM FÜR MOLEKULARE MEDIZIN IN DER …, priority 2020, published 2024).
pIC50: −log10 of the molar value. Several values for one entry are separate records, joined by “and”; a condition that tells them apart may be missing. Identical values can stand only once. Entries after “also recorded” stand apart in the source; their conditions may differ. Like-named read-outs stand apart in the source and are kept apart here.

Columns and labels:
Assay type in all cases: cell-based, mouse
[1] = test system: primary cultured neonatal microglia; test: LPS induced NO release, Griess assay, laboratory scaled setup; conditions: for pIC50: 96 well plate, 1 h C1, then 1 μg/ml LPS 48 h, 2 nM to 20 μM, read-out: IC50, LPS induced NO release
Procedure: (§1) Primary cultured neonatal microglia. For preparation of cultured neonatal microglia, P0-P3 mice were used. 10 brains were extracted, meninges and cerebellum were removed and put on ice with Hank's balanced salt solution (HBSS). The dissected brains were washed 3 times before adding 400 μL trypsin (0.1 mg/L) and DNAse (5 μg/L) in phosphate buffered saline (PBS). After 2 min of incubation with this solution, the reaction was blocked by adding plain medium. After removal of the medium, 1 mg DNAse was added and the cells were mechanically dissociated, with a Pasteur pipette followed by a glass pipette. The cells were centrifuged for 10 min at 129 g at 4° C. The supernatant was discarded. The pellet was resuspended in plain medium and plated (2.5 brains/flask) in Poly-L-Lysine coated flasks. The cells were washed after 2 days with PBS and incubated for another 7 days in plain medium. Afterwards the medium was replaced by plain medium with 33% L929 conditioned medium. After 2 days, cells were harvested by shaking them for 30 min at 150 rpm. The supernatant was centrifuged for 10 min at 129 g at 4° C. The cells were plated into a 96 well plate (100 000 cells/well, 200 μL medium per well). This procedure could be repeated 2 times with a 2 day interval.
(§2) Griess assay. Cells were seeded according to the protocols described above, after compounds and stimuli were added, 100 μl of supernatant was transferred into a new 96 well plate and 100 μl freshly mixed Griess reagent were added. Griess reagent was composed of reagent A (100 mg Naphthylethylene in 50 ml aqua dest.) and reagent B (1 g Sulfanilamide, […] H3PO4 (85%) in 44 mL aqua dest.) mixed 1:1. The solution was carefully mixed and the absorbance was determined in a microplate reader at a wavelength of 550 nm.
Dissolved sodium nitrite in plain medium served as a standard. Total amount of nitrite was calculated by a linear regression of the standard curve.
The activity of the compounds listed in column 1 of Table 1 as inhibitors of NO production was compared in murine primary cultured neonatal microglia as described above.

[2] = test system: primary cultured neonatal microglia; test: Cytokine release (IL1β, IL6, TNFα) ELISA in microglia
Procedure: as §1
Enzyme-linked immunosorbent assay (ELISA). Cells were seeded according to the protocols described above, after compounds and stimuli were added, the supernatant was collected, centrifuged (500 g, 5 minutes) and stored at −20° C. until analysed. The following kits from Bio-Techne (Minneapolis, USA) were used to detect IL1β, IL6 and TNFα: ELISA Mouse IL-1β/IL-1F2 Duo Set, ELISA Mouse IL-6, ELISA Mouse TNFα. ELISA assays were performed according to the manufacturers protocol.

[3] = test system: primary cultured microglial cells; test: Flow cytometry-based phagocytosis assay; conditions: 2.5 μM C1
Procedure: Flow cytometry-based phagocytosis assay. 10^6 primary cultured microglial cells were seeded into 3.5 cm dishes in plain medium overnight at standard conditions. The cells were treated for 1 hour with 2.5 μM C1 in DMSO, 125×10^−5 v/v DMSO respectively, or plain medium only. To stimulate microglia, LPS (1 μg/ml) was added for additional 24 hours. Fluoresbrite Carboxylate Microspheres (BrightBlue, 4.5 μm, Polyscience, Niles, USA) were coated with fetal calf serum for 30 min at room temperature, and subsequently centrifuged at 3000 g for 2 min at room temperature. The beads were resuspended in HBSS at a final concentration of 2×10^6 beads per ml. The microglia culture was washed once with HBSS (37° C.) before 1 ml bead solution was applied. The cells were incubated with the beads for 30 min at 37° C. Afterwards, microglia were washed twice with ice cold HBSS, scratched off and pulled down at 500 g for 5 min. The cells were resuspended in a propidium iodide solution (1:200 in HBSS) to stain dead cells. The stained cells were transferred to a BD LSRFortessa Flow cytometer (BD Bioscience, Sparks, USA). The median intensity of the bright blue beads was calculated using Flowlo v10 software (Ashland, USA). The data of each experiment was normalised to the unstimulated media control.

[4] = test system: bone marrow derived macrophages; test: NO release in bone marrow derived macrophages, Griess assay; conditions: for NO release: 0.25 μM C1; for NO release, % of positive control: 2.5 μM C1
Procedure: Primary cultured macrophages. Bone marrow macrophages were isolated from C57BL/6 adult mice (P49-56) as previously described (Marim et al., 2010). In summary, mice were killed by cervical dislocation and the femurs were removed by cutting through the tibia near the pelvic bone and below the knee. Any muscle connected to the bone was carefully removed. Ice cold sterile PBS was slowly flushed through the bone and the contents were collected in a sterile 15 mL polypropylene tube on ice. After centrifugation for 10 min at 200 g at 4° C., red blood cells were lysed by adding 3-10 mL ammonium chloride solution. After a 3-5 min recovery period, the suspension was centrifuged for 10 min at 200 g at 4° C. and the supernatant was removed. Cells were plated in a 10 cm dish with plain medium containing 10 ng/mL M-CSF and cultured for 7 days to allow differentiation. 50 000 cells were plated with 200 μL medium per well in a 96 well plate.
as §2
Microglia and macrophages share many of their immune properties, therefore the inventors evaluated the impact of C1 on the release of NO and the pro-inflammatory cytokines IL1β, IL6, and TNFα on bone marrow derived macrophages (Amici et al., 2017; Li and Barres, 2017). Bone marrow derived macrophages were isolated from adult mice and pre-treated for 1 hour with C1 (0.025 μM, 0.25 μM, or 2.5 μM), its corresponding concentration of DMSO (1.25×10-5, 12.5×10-5, or 125×10-5 v/v), or plain medium before a stimulus was added. The NO release was measured after stimulation with either 1 μg/ml LPS for 48 hours (FIG. 2-1A), 100 μg/mL PolyIC for 24 hours (FIG. 2-1B) or 100 ng/ml IFNγ for 48 hours (FIG. 2-1C). […] DMSO had no effect on the NO release in bone marrow derived macrophages stimulated with LPS or PolyIC (FIGS. 2-1A and B). However, it reduced the IFNγ induced NO release in these cells independently of the applied dose (1.25×10-5 v/v: 85%, p<0.0043; 12.5×10-5 v/v: 83%, p<0.0016; 125×10-5 v/v: 85%, p<0.0046, FIG. 2-1C), similar to the effect observed in microglia when stimulated with IFNγ (FIG. 2A).

[5] = 1 h C1, then 1 μg/ml LPS 48 hours
[6] = unstimulated microglia, 48 hours

COc1ccc(NC(=O)C(NC(=O)C2CCCN2C(=O)OCc2ccccc2)c2ccc(OC)cc2)cc1 (stereo not shown) [C1]
pIC50 [1]: 6.60 | NO release in unstimulated microglia ([1]; C1 alone 0.025, 0.25, 2.5 μM, 48 hours, no LPS): did not show any significant difference; also recorded: did neither change the NO release | pIC50 ([1]; Mus musculus, Microglia): 6.60 | NO concentration in supernatant vs plain medium / DMSO ([1]; post-treatment with 2.5 μM C1 after 24 hours LPS, from 8 hours (plain medium), 12 hours (DMSO)): significantly reduced; also recorded: significant reduction | calculated plateau of NO concentration in supernatant ([1]; post-treatment: 24 hours LPS, medium change, then 2.5 μM C1 up to 60 hours): 7 µM | LPS induced IL1β release ([2]; 0.025, 0.25, 2.5 μM C1, 1 μg/ml LPS 48 hours): exceeded the LPS-induced release; also recorded: exceeds the stimulated control significantly | LPS induced IL6 release [2, 5]: no effect; also recorded: did not show a reduction | LPS induced TNFα release [2, 5]: no effect; also recorded: did not show a reduction | IL1β release, C1 alone [2, 6]: did not show any significant changes; also recorded: does not alter | IL6 release, C1 alone [2, 6]: did not show any significant changes; also recorded: does not alter | TNFα release, C1 alone [2, 6]: did not show any significant changes; also recorded: does not alter | phagocytic activity, basal conditions [3]: neither C1 nor DMSO changes microglial phagocytosis significantly; also recorded: did not alter | increase of phagocytosis upon LPS compared to own unstimulated control ([3]; 1 μg/mL LPS 24 hours): +45% | phagocytic activity, LPS stimulated conditions ([3]; 1 μg/mL LPS 24 hours): no significant differences; also recorded: did not alter | NO release ([4]; 1 μg/mL LPS 48 hours): reduced the NO release significantly | NO release ([4]; 100 μg/mL PolyIC 24 hours): significant decrease | NO release, % of positive control ([4]; 100 ng/mL IFNγ 48 hours): 18% | NO release, % of positive control ([4]; 100 μg/mL PolyIC 24 hours): 15.01±10.32% and 15% | NO release, dose dependence ([4]; 0.025, 0.25, 2.5 μM C1, LPS, PolyIC or IFNγ): reduced the NO release in a dose dependent manner
